Laboratory results as given in article PMC13192270, “RhlR quorum-sensing receptor ligand sensitivity regulates the differential expression of phenazine genes in Pseudomonas aeruginosa” (Journal of Bacteriology, 2026).
Like-named read-outs stand apart in the source and are kept apart here.

How the values were obtained:
[1] = test system: LasR; set-up: method as in PMID 28119451; conditions: cited from earlier work
[2] = target: T1, RhlR (T58F) (Pseudomonas aeruginosa, UniProt P54292, T58F); assay: E. coli prhlA-luxCDABE luciferase reporter assay; type: cell-based, Escherichia coli
T1 construct: expressed in transfected cells; host or cells: E. coli carrying pBAD-A-rhlR mutant, pCS26-prhlA-luxCDABE and pACYC-pqsE or empty pACYC
T1 sequence (P54292 1-241 T58F): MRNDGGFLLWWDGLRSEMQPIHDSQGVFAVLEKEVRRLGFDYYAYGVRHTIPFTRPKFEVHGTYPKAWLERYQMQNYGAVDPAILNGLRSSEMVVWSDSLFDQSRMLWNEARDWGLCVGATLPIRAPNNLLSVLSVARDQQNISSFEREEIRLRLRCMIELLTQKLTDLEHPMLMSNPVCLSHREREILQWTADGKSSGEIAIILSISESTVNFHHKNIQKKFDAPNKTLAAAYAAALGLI
Source text: (§1) Previous analysis of the RhlR LBP focused on highly conserved residues that were known from other AHL-binding proteins to be important contacts for AHL molecules, particularly the lactone head group. We performed conservation analyses on 300 LuxR-type receptors to determine variable and moderately conserved residues in the LBP (Fig. 1B) and, in conjunction with our previously determined experimental structure of WT RhlR bound to the synthetic agonist mBTL, used for docking C4- and C6HSL. Based on our docking simulations, C4- and C6HSL occupy a similar position in the LBP as mBTL, a highly efficacious activator of RhlR (Fig. 1C; Fig. S1). We targeted residues A44, G46, T58, L69, Y72, D81, I84, W96, and W108 (Fig. 1B and C). These residues were selected because of their proximity to the acyl tail of C4HSL, as well as the differences in conservation that are observed at these sites. We used an E. coli luciferase reporter assay to monitor ligand-dependent activation of WT RhlR and RhlR variants. WT RhlR and RhlR variants were expressed under the control of an arabinose-inducible promoter (Fig. S2). Transcription was monitored by light production via the expression of the luxCDABE operon controlled by the RhlR-dependent promoter of rhlA. Binding of RhlR to the rhlA promoter is highly dependent on the C4HSL-RhlR interaction, based on ChIP-seq analyses performed in P. aeruginosa as well as previously published E. coli reporter systems ([34], [39]). After expressing WT RhlR and RhlR variants in the E. coli reporter system, we performed dose response assays using C4HSL to calculate the concentration of C4HSL required to activate the reporter system to 50% maximum levels (EC50 value; Table 1). As expected, transcription activation by WT RhlR increased with increased C4HSL levels, with an EC50 value of ~2 µM. We observed a range of responses. Figure 1C depicts the targeted residues, which are colored based on the effect of amino acid substitution.
(§2) RhlR requires the accessory-binding protein, PqsE, for maximal activity. To determine if PqsE expression altered the activation of RhlR variants, we assessed AHL-dependent RhlR activation of the prhlA-luxCDABE reporter in the presence of a third plasmid that constitutively expresses PqsE in E. coli. […] RhlR variants that were still active but with increased EC50 values for C4HSL could have their activity enhanced by PqsE. […] Thus, alterations to the LBP can diminish the additive effect of PqsE-dependent transcription, indicating a potential role of allosteric conformational changes dependent on ligand occupancy. […] RhlR variants at residues I84 and W108 could not be activated by C4HSL, and thus, light levels remained low at all concentrations that were tested. Unlike the aforementioned variants, RhlR I84M/W and RhlR W108F/Y were activated by the expression of PqsE (Fig. S4).
(§3) All E. coli strains in this study were grown overnight with shaking in 5 mL Luria-Bertani (LB) media supplemented with 100 µg/mL ampicillin, 50 µg/mL kanamycin, and 15 µg/mL tetracycline at 37°C overnight. Overnight cultures were diluted 1:100 into fresh media, grown at 37°C with shaking for 2 h until reaching OD600 = 0.4. Cultures were induced with a final concentration of 0.1% arabinose, and 198 μL of the induced culture was mixed with 2 μL of C4HSL dilutions in a clear-bottom, black-opaque 96-well plate (Corning) and grown at 37°C with shaking for 4 h. The C4HSL dilution series was performed 1:1 in dimethyl sulfoxide (DMSO) with a top final concentration of 10 μM. Luminescence and optical density were recorded using a Glomax (Promega) plate reader.

[3] = target: T2, RhlR (T58I) (Pseudomonas aeruginosa, UniProt P54292, T58I); assay: E. coli prhlA-luxCDABE luciferase reporter assay; type: cell-based, Escherichia coli
T2 construct: expressed in transfected cells; host or cells: E. coli carrying pBAD-A-rhlR mutant, pCS26-prhlA-luxCDABE and pACYC-pqsE or empty pACYC
T2 sequence (P54292 1-241 T58I): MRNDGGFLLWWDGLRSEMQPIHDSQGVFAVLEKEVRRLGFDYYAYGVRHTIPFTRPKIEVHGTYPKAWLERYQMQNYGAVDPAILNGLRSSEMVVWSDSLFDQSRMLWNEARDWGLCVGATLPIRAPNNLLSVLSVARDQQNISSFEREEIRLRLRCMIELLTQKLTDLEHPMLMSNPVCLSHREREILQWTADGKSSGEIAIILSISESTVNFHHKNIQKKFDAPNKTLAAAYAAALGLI
Source text: as §1, §2, §3

[4] = target: T3, RhlR (T58L) (Pseudomonas aeruginosa, UniProt P54292, T58L); assay: E. coli prhlA-luxCDABE luciferase reporter assay; type: cell-based, Escherichia coli
T3 construct: expressed in transfected cells; host or cells: E. coli carrying pBAD-A-rhlR mutant, pCS26-prhlA-luxCDABE and pACYC-pqsE or empty pACYC
T3 sequence (P54292 1-241 T58L): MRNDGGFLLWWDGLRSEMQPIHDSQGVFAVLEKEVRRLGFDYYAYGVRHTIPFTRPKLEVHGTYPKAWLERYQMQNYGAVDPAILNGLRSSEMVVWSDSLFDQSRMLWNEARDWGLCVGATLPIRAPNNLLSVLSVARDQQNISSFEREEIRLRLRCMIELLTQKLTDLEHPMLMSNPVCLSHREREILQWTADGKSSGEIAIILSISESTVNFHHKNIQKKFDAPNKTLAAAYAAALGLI
Source text: as §1, §2, §3

[5] = target: T4, WT RhlR (Pseudomonas aeruginosa, UniProt P54292); assay: E. coli prhlA-luxCDABE luciferase reporter assay; type: cell-based; conditions: read-out: EC50
T4 construct: expressed in transfected cells; host or cells: E. coli carrying pBAD-A-rhlR, pCS26-prhlA-luxCDABE and pACYC-pqsE or empty pACYC
T4 sequence (P54292 1-241): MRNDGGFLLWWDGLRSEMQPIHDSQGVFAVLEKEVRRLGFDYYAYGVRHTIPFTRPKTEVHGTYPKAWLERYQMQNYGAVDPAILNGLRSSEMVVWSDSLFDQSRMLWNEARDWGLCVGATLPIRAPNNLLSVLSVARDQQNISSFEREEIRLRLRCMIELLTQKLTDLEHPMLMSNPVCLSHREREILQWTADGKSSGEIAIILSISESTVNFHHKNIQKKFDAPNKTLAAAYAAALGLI
Source text: as §1, §2, §3

[6] = target: T5, RhlR (T58V) (Pseudomonas aeruginosa, UniProt P54292, T58V); assay: E. coli prhlA-luxCDABE luciferase reporter assay; type: cell-based
T5 construct: expressed in transfected cells; host or cells: E. coli carrying pBAD-A-rhlR mutant, pCS26-prhlA-luxCDABE and pACYC-pqsE or empty pACYC
T5 sequence (P54292 1-241 T58V): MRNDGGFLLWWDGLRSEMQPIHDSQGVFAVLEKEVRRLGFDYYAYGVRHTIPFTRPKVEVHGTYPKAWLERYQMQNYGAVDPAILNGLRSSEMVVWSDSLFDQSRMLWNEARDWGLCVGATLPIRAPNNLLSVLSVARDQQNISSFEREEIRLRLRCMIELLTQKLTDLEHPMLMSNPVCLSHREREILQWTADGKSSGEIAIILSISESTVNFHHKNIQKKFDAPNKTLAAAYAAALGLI
Source text: as §1, §2, §3

[7] = target: 6x-His-PqsE (Pseudomonas aeruginosa, UniProt P20581 1-301); assay: cell-based or functional assay

For `CCCCCCCCCC(=O)CC(=O)N[C@H]1CCOC1=O` [3OC12HSL, N-(3-oxododecanoyl)-L-homoserine lactone], the EC50 [1] is listed as roughly 2 nM.

For `CCCCCC(=O)N[C@H]1CCOC1=O` [C6HSL], the EC50 ([2]; Vector (no pqsE)) was 580 nM, the EC50 ([2]; pqsE co-expressed) was 103 nM and the EC50 ([3]; Vector (no pqsE)) was 561 nM. The EC50 ([3]; pqsE co-expressed) was 51.1 nM, the EC50 ([4]; Vector (no pqsE)) was 168 nM and the EC50 ([4]; pqsE co-expressed) was 0.908 nM. It also gave an EC50 ([5]; Vector (no pqsE)) of 12600 nM, an EC50 ([5]; pqsE co-expressed) of 9240 nM and an EC50 ([6]; Vector (no pqsE)) of 809 nM. It also gave an EC50 ([6]; pqsE co-expressed) of 111 nM.

B1: WT RhlR (receptor)
chain: MRNDGGFLLWWDGLRSEMQPIHDSQGVFAVLEKEVRRLGFDYYAYGVRHTIPFTRPKTEVHGTYPKAWLERYQMQNYGAVDPAILNGLRSSEMVVWSDSLFDQSRMLWNEARDWGLCVGATLPIRAPNNLLSVLSVARDQQNISSFEREEIRLRLRCMIELLTQKLTDLEHPMLMSNPVCLSHREREILQWTADGKSSGEIAIILSISESTVNFHHKNIQKKFDAPNKTLAAAYAAALGLI
With B1 the “prhlA-luxCDABE reporter in E. coli: C4HSL-RhlR-dependent expression with PqsE expressed from a third plasmid (pACYC) against the empty vector” value [7] was roughly 20 fold.
